Key:
[1] = molecular target: T1, CRBN (Homo sapiens, UniProt Q96SW2); experiment: Cellular CRBN engagement assay (competition with dBET6, BRD4BD2-eGFP reporter); assay type: cell-based; conditions: FIG. 1; for cell permeability (from cellular CRBN engagement): Flp-In 293 reporter cells; for IC50: competition with 100 nM dBET6, 5 h, Flp-In 293 cells expressing BRD4BD2-eGFP and mCherry
T1 construct: endogenous in cells; host or cells: Flp-In 293 cells stably expressing BRD4BD2-eGFP and mCherry
Method: BRD4BD2 was subcloned into mammalian pcDNA5/FRT Vector (Ampicillin and Hygromycin B resistant) modified to contain MCS-eGFP-P2A-mCherry. Stable cell lines expressing eGFP-protein fusion and mCherry reporter were generated using Flp-In™ 293 system. Plasmid (0.3 μg) and pOG44 (4.7 μg) DNA were preincubated in 100 μL of Opti-MEM™ I (Gibco™, Life Technologies™) media containing 0.05 mg/ml Lipofectamine 2000 (Invitrogen™) for 20 min and added to Flp-In™ 293 cells containing 1.9 ml of Dulbecco's Modified Eagle Medium (DMEM) media (Gibco™, Life Technologies™) per well in a 6-well plate format (Falcon, 353046). Cells were propagated after 48 h and transferred into a 10 cm^2 plate (Corning®, 430165) in DMEM media containing 50 μg/ml of Hygromycin B (Invitrogen™, REF 10687010) as a selection marker. Following 2-3 passage cycles, FACS (FACSAria™ II, BD) was used to enrich for cells expressing eGFP and mCherry.
Stable cells expressing the BRD4BD2-eGFP protein fusion and the mCherry reporter were seeded at a density of 1000-4000 cells/well in a 384-well plate with 50 μL per well of FluoroBrite™ DMEM media (Thermo Fisher Scientific, A18967) supplemented with 10% FBS a day before compound treatment. Compounds and 100 nM dBET6 were dispensed using a D300e Digital Dispenser (HP), normalized to 0.5% DMSO, and incubated with the cells for 5 h. The assay plate was imaged immediately using an acument High Content Imager (TTP Labtech) with 488 nm and 561 nm lasers in a […] grid per well format. The resulting images were analyzed using CellProfiler™ (Carpenter et al., Genome Biol. 7(10):R100 (2006)). A series of image analysis steps (an ‘image analysis pipeline’) was constructed. First, the red and green channels were aligned and cropped to target the middle of each well (to avoid analysis of the heavily clumped cells at the edges). A background illumination function was calculated for both red and green channels of each well individually and subtracted to correct for illumination variations across the 384-well plate from various sources of error. An additional step was then applied to the green channel to suppress the analysis of large auto fluorescent artifacts and enhance the analysis of cell specific fluorescence by way of selecting for objects under a given size (30 A.U.) and with a given shape (speckles). mCherry-positive cells were then identified in the red channel by filtering for objects 8-60 pixels in diameter and by using intensity to distinguish between clumped objects. […] The fraction of GFP-positive cells/mCherry-positive cells in each well was then calculated, and the green and red images were rescaled for visualization. […]

[2] = molecular target: T2, HDAC9 (Homo sapiens, UniProt Q9UKV0); experiment: In vitro HDAC enzymatic assay (Reaction Biology); assay type: biochemical; conditions: dose response, FIG. 2A-2B
T2 construct: purchased Reaction Biology (Devault, PA)

[3] = molecular target: HDAC4 (Homo sapiens, UniProt P56524); experiment: In vitro HDAC enzymatic assay (Reaction Biology); assay type: biochemical; parameters: purchased Reaction Biology (Devault, PA); conditions: dose response, FIG. 2A-2B
[4] = molecular target: HDAC5 (Homo sapiens, UniProt Q9UQL6); experiment: In vitro HDAC enzymatic assay (Reaction Biology); assay type: biochemical; parameters: purchased Reaction Biology (Devault, PA); conditions: dose response, FIG. 2A-2B
[5] = molecular target: T3, HDAC7 (Homo sapiens, UniProt Q8WUI4); experiment: In vitro HDAC enzymatic assay (Reaction Biology); assay type: biochemical; parameters: purchased Reaction Biology (Devault, PA); conditions: dose response, FIG. 2A-2B
T3 sequence (Q8WUI4 1-952): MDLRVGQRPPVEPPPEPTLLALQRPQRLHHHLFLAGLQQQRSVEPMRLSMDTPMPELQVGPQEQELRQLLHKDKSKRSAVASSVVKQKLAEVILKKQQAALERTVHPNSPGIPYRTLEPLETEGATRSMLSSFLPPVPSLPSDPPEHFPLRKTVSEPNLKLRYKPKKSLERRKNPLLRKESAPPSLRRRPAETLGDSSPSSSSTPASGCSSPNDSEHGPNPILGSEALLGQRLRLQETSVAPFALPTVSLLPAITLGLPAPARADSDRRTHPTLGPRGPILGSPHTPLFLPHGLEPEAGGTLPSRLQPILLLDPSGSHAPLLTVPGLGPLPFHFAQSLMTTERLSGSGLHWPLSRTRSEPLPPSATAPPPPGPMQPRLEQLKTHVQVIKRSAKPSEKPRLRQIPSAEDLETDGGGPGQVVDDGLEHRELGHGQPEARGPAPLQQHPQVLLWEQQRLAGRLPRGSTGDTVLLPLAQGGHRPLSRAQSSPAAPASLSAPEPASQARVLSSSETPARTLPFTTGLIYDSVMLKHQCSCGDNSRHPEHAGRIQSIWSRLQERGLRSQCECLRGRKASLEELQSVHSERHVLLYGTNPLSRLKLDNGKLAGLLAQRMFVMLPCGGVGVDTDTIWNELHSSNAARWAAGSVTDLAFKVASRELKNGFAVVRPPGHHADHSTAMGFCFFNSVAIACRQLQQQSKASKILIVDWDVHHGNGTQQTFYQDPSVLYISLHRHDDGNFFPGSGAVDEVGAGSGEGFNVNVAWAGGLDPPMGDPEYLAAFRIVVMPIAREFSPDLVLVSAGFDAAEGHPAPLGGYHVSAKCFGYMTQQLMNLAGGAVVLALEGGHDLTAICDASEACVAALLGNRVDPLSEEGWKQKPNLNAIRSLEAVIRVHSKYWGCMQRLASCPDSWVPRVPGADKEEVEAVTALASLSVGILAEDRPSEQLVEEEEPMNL

Structure (SMILES) | cell permeability (from cellular CRBN engagement) [1] | IC50 [1] [µM] | inhibition of HDAC9 [2] | inhibition of HDAC4 [3] | inhibition of HDAC5 [4] | inhibition of HDAC7 [5]
O=C1CCC(N2C(=O)c3cccc(NCCCCCCN4CCC(CNC(=O)c5cccc(-c6noc(C(F)(F)F)n6)c5)(c5nc(-c6ccccc6)cs5)CC4)c3C2=O)C(=O)N1 (stereo not drawn) [Compound 1] | cell permeable | 0.14 | inhibited | inhibited | inhibited | inhibited
CCN(CCNc1cccc2c1C(=O)N(C1CCC(=O)NC1=O)C2=O)C[C@@H](C)NC(=O)c1ccc(-c2noc(C(F)(F)F)n2)cc1 (stereo partly drawn) [Compound 16, N-((2R)-1-((2-((2-(2,6-dioxopiperidin-3-yl)-1,3-dioxoisoindolin-4-yl)amino)ethyl)(ethyl)amino)propan-2-yl)-4-(5-(trifluoromethyl)-1,2,4-oxadiazol-3-yl)benzamide] | cell permeable | 6.98 | inhibited | inhibited | inhibited | inhibited

— patent publication US20240246956A1, “CLASS IIA HISTONE DEACETYLASE (HDAC) DEGRADER LIGANDS AND METHODS OF USE THEREOF” (DANA-FARBER CANCER INSTITUTE, INC., priority 2021, published 2024)
